Source: US12060355B2, “Compounds for use in the treatment of fascioliasis” (Merck Patent GmbH, priority 2018, dated 2024)

What follows are compounds tested on human HepG2 cell lines. Details: human HepG2 cell line.
Format: cell-based

| SMILES | Cytotox HepG2 [µM] |
| --- | --- |
| CC(C)c1nc2cnc(-c3ccc(F)c(C(F)(F)F)c3)cn2c1-c1ccc2[nH]ncc2c1F [Example 2, 4-fluoro-5-{6-[4-fluoro-3-(trifluoromethyl)phenyl]-2-(propan-2-yl)imidazo[1,2-a]pyrazin-3-yl}-1H-indazole] | 10.4 |
| Cc1nc2cnc(-c3cccc(C(F)(F)F)c3)cn2c1-c1c(F)cc(O)cc1F [Example 15, 3,5-difluoro-4-[2-methyl-6-[3-(trifluoromethyl)phenyl]imidazo[1,2-a]pyrazin-3-yl]phenol] | 8.4 |
| Cc1nc2cnc(-c3ccc(F)c(C(F)(F)F)c3)cn2c1-c1c(F)cc(O)cc1F [Example 16, 3,5-difluoro-4-[2-methyl-6-[4-fluoro-3-(trifluoromethyl)phenyl]imidazo[1,2-a]pyrazin-3-yl]phenol] | 7.6 |
| CC(C)c1nc2cnc(-c3cccc(C(F)(F)F)c3)cn2c1-c1c(F)cc(O)cc1F [Example 19, 3,5-difluoro-4-[2-(propan-2-yl)-6-[3-(trifluoromethyl)phenyl]imidazo[1,2-a]pyrazin-3-yl]phenol] | 7.5 |
| CC(C)c1nc2cnc(-c3cccc(C(F)(F)F)c3)cn2c1-c1ccc2[nH]ncc2c1F [Example 21, 4-fluoro-5-{2-propan-2-yl-6-[3-trifluoromethylphenyl]imidazo[1,2-a]pyrazin-3-yl}-1H-indazole] | 15.1 |
| CC(C)c1nn2cnc(-c3cccc(C(F)(F)F)c3)cc2c1-c1c(F)cc(O)cc1F [Example 24, 3,5-difluoro-4-(2-isopropyl-5-(3-(trifluoromethyl)phenyl)pyrazolo[1,5-c]pyrimidin-3-yl)phenol] | 8.4 |
| Fc1c(-c2c(C(F)(F)F)nc3cnc(-c4cccc(C(F)(F)C(F)(F)F)c4)cn23)ccc2[nH]ncc12 [Example 29, 4-fluoro-5-{2-trifluoromethyl-6-[3-(pentafluoroethyl)phenyl]imidazo[1,2-a]pyrazin-3-yl}-1H-indazole] | 8.9 |
| COc1ccc(-c2c(C(F)(F)F)nc3cnc(-c4cccc(C(F)(F)C(F)(F)F)c4)cn23)cc1O [Example 30, 2-methoxy-5-[2-(trifluoromethyl)-6-[3-(pentafluoroethyl)phenyl]imidazo[1,2-a]pyrazin-3-yl]phenol] | 11.1 |
| Fc1ccc(-c2cn3c(-c4ccc5[nH]ncc5c4F)c(C4CC4)nc3cn2)cc1C(F)(F)F [Example 32, 4-fluoro-5-{2-cyclopropyl-6-[4-fluoro-3-(trifluoromethyl)phenyl]imidazo[1,2-a]pyrazin-3-yl}-1H-indazole] | 16.1 |
| CC1(c2nc3cnc(-c4ccc(F)c(C(F)(F)F)c4)cn3c2-c2c(F)cc(O)cc2F)CC1 [Example 33, 3,5-difluoro-4-[2-(1-methyl-cycloprop-1-yl)-6-[4-fluoro-3-(trifluoromethyl)phenyl]imidazo[1,2-a]pyrazin-3-yl]phenol] | 7.9 |
| Oc1cc(F)c(-c2c(C3CC3)nc3cnc(-c4ccc(F)c(C(F)(F)F)c4)cn23)c(F)c1 [Example 34, 4-(2-cyclopropyl-6-(4-fluoro-3-(trifluoromethyl)phenyl)imidazo[1,2-a]pyrazin-3-yl)-3,5-difluorophenol] | 8.9 |
| Oc1cc(F)c(-c2c(C3CCC3)nc3cnc(-c4ccc(F)c(C(F)(F)F)c4)cn23)c(F)c1 [Example 35, 4-(2-cyclobutyl-6-(4-fluoro-3-(trifluoromethyl)phenyl)imidazo[1,2-a]pyrazin-3-yl)-3,5-difluorophenol] | 5.7 |
| CCc1nc2cnc(-c3ccc(F)c(C(F)(F)F)c3)cn2c1-c1c(F)cc(O)cc1F [Example 36, 3,5-difluoro-4-[2-ethyl-6-[4-fluoro-3-(trifluoromethyl)phenyl]imidazo[1,2-a]pyrazin-3-yl]phenol] | 8.3 |
| CCc1nc2cnc(-c3ccc(F)c(C(F)(F)F)c3)cn2c1-c1ccc2[nH]ncc2c1F [Example 37, 4-fluoro-5-{2-ethyl-6-[4-fluoro-3-(trifluoromethyl)phenyl]imidazo[1,2-a]pyrazin-3-yl}-1H-indazole] | 13.1 |
| CC(C)c1nc2cnc(-c3cccc(S(F)(F)(F)(F)F)c3)cn2c1-c1c(F)cc(O)cc1F [Example 39, 3,5-difluoro-4-[2-(propan-2-yl)-6-[3-(pentafluorosulfanyl)phenyl]imidazo[1,2-a]pyrazin-3-yl]phenol] | 6.6 |
| Fc1c(-c2c(C3CC3)nc3cnc(-c4cccc(S(F)(F)(F)(F)F)c4)cn23)ccc2[nH]ncc12 [Example 46, 2-cyclopropyl-3-(4-fluoro-1H-indazol-5-yl)-6-(3-(pentafluoro-λ6-sulfaneyl)phenyl)imidazo[1,2-a]pyrazine] | 20.7 |
| CCc1nn2cnc(-c3ccc(F)c(C(F)(F)F)c3)cc2c1-c1c(F)cc(O)cc1F [Example 48, 4-(2-ethyl-5-(4-fluoro-3-(trifluoromethyl)phenyl)pyrazolo[1,5-c]pyrimidin-3-yl)-3,5-difluorophenol] | 9.8 |

| SMILES | Cytotox HepG2 [µM] |
| --- | --- |
| Cc1nc2cnc(-c3cccc(C(F)(F)C(F)(F)F)c3)cn2c1-c1c(F)cc(O)cc1F [Example 49, 3,5-difluoro-4-[2-methyl-6-[3-(pentafluoroethyl)phenyl]imidazo[1,2-a]pyrazin-3-yl]phenol] | 9.3 |
| CCc1nc2cnc(-c3cccc(C(F)(F)C(F)(F)F)c3)cn2c1-c1c(F)cc(O)cc1F [Example 52, 4-[2-Ethyl-6-(3-pentafluoroethyl-phenyl)-imidazo[1,2-a]pyrazin-3-yl]-3,5-difluoro-phenol] | 8.0 |
| Cc1nc2cnc(-c3ccc(F)c(C(F)(F)C(F)(F)F)c3)cn2c1-c1c(F)cc(O)cc1F [Example 53, 3,5-Difluoro-4-[6-(4-fluoro-3-pentafluoroethyl-phenyl)-2-methyl-imidazo[1,2-a]pyrazin-3-yl]-phenol] | 8.8 |
| Oc1cc(F)c(-c2c(C3CC3)nc3cnc(-c4ccc(F)c(S(F)(F)(F)(F)F)c4)cn23)c(F)c1 [Example 56, 4-[2-Cyclopropyl-6-(4-fluoro-3-pentafluorosulfanyl-phenyl)-imidazo[1,2-a]pyrazin-3-yl]-3,5-difluoro-phenol] | 10.1 |
| Fc1ccc(-c2cn3c(-c4ccc5[nH]ncc5c4F)c(C4CC4)nc3cn2)cc1S(F)(F)(F)(F)F [Example 57, 2-Cyclopropyl-3-(4-fluoro-1H-indazol-5-yl)-6-(4-fluoro-3-pentafluorosulfanyl-phenyl)-imidazo[1,2-a]pyrazine] | 14.8 |
| CC(C)c1nn2cnc(-c3ccc(F)c(C(F)(F)C(F)(F)F)c3)cc2c1-c1ccc2[nH]ncc2c1F [Example 58, 3-(4-Fluoro-1H-indazol-5-yl)-5-(4-fluoro-3-pentafluoroethyl-phenyl)-2-isopropyl-pyrazolo[1,5-c]pyrimidine] | 10.8 |
| Fc1ccc(-c2cn3c(-c4ccc5[nH]ncc5c4F)c(C(F)(F)F)nc3cn2)cc1C(F)(F)C(F)(F)F [Example 63, 3-(4-Fluoro-1H-indazol-5-yl)-6-(4-fluoro-3-pentafluoroethyl-phenyl)-2-trifluoromethyl-imidazo[1,2-a]pyrazine] | 11.7 |
| Fc1ccc(-c2cn3c(-c4ccc5[nH]ncc5c4F)c(C(F)(F)F)nc3cn2)cc1S(F)(F)(F)(F)F [Example 65, 3-(4-Fluoro-1H-indazol-5-yl)-6-(4-fluoro-3-pentafluorosulfanyl-phenyl)-2-trifluoromethyl-imidazo[1,2-a]pyrazine] | 11.1 |
| CC(C)c1cccc(-c2cn3c(-c4ccc5[nH]ncc5c4F)c(C(F)(F)F)nc3cn2)c1 [Example 66, 3-(4-Fluoro-1H-indazol-5-yl)-6-(3-isopropyl-phenyl)-2-trifluoromethyl-imidazo[1,2-a]pyrazine] | 12.9 |
| CC(C)c1cc(-c2cn3c(-c4ccc5[nH]ncc5c4F)c(C(F)(F)F)nc3cn2)ccc1F [Example 67, 3-(4-Fluoro-1H-indazol-5-yl)-6-(4-fluoro-3-isopropyl-phenyl)-2-trifluoromethyl-imidazo[1,2-a]pyrazine] | 17.0 |
| Fc1ccc(-c2cn3c(-c4ccc5[nH]ncc5c4F)c(C(F)(F)F)nc3cn2)cc1CC(F)(F)F [Example 69, 3-(4-Fluoro-1H-indazol-5-yl)-6-[4-fluoro-3-(2,2,2-trifluoro-ethyl)-phenyl]-2-trifluoromethyl-imidazo[1,2-a]pyrazine] | 5.3 |
| Fc1ccc(-c2cn3c(-c4ccc5[nH]ncc5c4F)c(C(F)(F)F)nc3cn2)cc1OC(F)(F)F [Example 71, 3-(4-Fluoro-1H-indazol-5-yl)-6-(4-fluoro-3-trifluoromethoxy-phenyl)-2-trifluoromethyl-imidazo[1,2-a]pyrazine] | 12.2 |
| Fc1c(-c2c(C(F)(F)F)nc3cnc(-c4cccc(OC(F)(F)F)c4)cn23)ccc2[nH]ncc12 [Example 72, 3-(4-Fluoro-1H-indazol-5-yl)-6-(3-trifluoromethoxy-phenyl)-2-trifluoromethyl-imidazo[1,2-a]pyrazine] | 9.7 |
| CC(C)c1cc(-c2cn3c(-c4ccc5[nH]ncc5c4F)c(C(C)C)nc3cn2)ccc1F [Example 74, 3-(4-Fluoro-1H-indazol-5-yl)-6-(4-fluoro-3-isopropyl-phenyl)-2-isopropyl-imidazo[1,2-a]pyrazine] | 11.0 |
| CCc1nc2cnc(-c3ccc(F)c(C(C)C)c3)cn2c1-c1ccc2[nH]ncc2c1F [Example 75, 2-Ethyl-3-(4-fluoro-1H-indazol-5-yl)-6-(4-fluoro-3-isopropyl-phenyl)-imidazo[1,2-a]pyrazine] | 11.3 |
| CC(C)c1cc(-c2cn3c(-c4ccc5[nH]ncc5c4F)c(C4CCC4)nc3cn2)ccc1F [Example 77, 2-Cyclobutyl-3-(4-fluoro-1H-indazol-5-yl)-6-(4-fluoro-3-isopropyl-phenyl)-imidazo[1,2-a]pyrazine] | 10.8 |
| CC(C)c1cc(-c2cn3c(-c4ccc5[nH]ncc5c4F)c(C4CC4)nc3cn2)ccc1F [Example 79, 2-Cyclopropyl-3-(4-fluoro-1H-indazol-5-yl)-6-(4-fluoro-3-isopropyl-phenyl)-imidazo[1,2-a]pyrazine] | 15.7 |
